Experimental data taken from patent publication US20100204460A1, “NATURAL BRASSINOSTEROIDS FOR USE FOR TREATING HYPERPROLIFERATION, TREATING PROLIFERATIVE DISEASES AND REDUCING ADVERSE EFFECTS OF STEROID DYSFUNCTION IN MAMMALS, PHARMACEUTICAL COMPOSITION AND ITS USE” (priority 2007, published 2010).

Assays:
Type in all cases: cell-based
DU-145 cells [1] = experiment: Cell cycle distribution by flow cytometry, DU-145; details: IC50, 24 h; for Cell cycle distribution S: control 15%; for Apoptosis subG1 fraction: control 20%; for Cell cycle distribution G2/M: control 23%; for Cell cycle distribution G1: control 62%
Source text: In the MCF-7 breast cancer cell line that has been the most widely studied experimental cell system, the typical growth inhibitory response to antiestrogens is decrease in the proportion of cells synthesising DNA (S phase) after antiestrogen treatment. This decrease in S phase coincides with an increase in the proportion of cells in G0/G1 phase. The activity of the androgen receptor (AR) is also regulated by alterations in cell signaling. There has been reported ligand independent activation of AR in prostate cancer cells by different growth factors. As the AR can be activated in the absence of hormone, it appears that the conditions may be more restricted than those observed for ER. Use of physiologic doses of ligand (dihydrotestosterone, DHT) is of importance as the LNCaP cells proliferate only at DHT concentration of 10^−9 M or lower. […] In contrast to proliferation, transactivation of AR specific target genes (e.g. PSA) continues to increase with DHT doses of 10^−10 M and higher. It might be accepted for estrogen or androgen receptors as stronger cytotoxic activities of brassinosteroids 9 or 6 on hormone-sensitive (MCF-7, LNCaP) compared to hormone-insensitive (MDA-MB-468, DU-145) cell lines were found. Therefore we explored the possibility of cell cycle perturbation by BRs in different cancer cell lines. Flow cytometry was used to evaluate the number of cells in the particular phases of the cell cycle, including subG1 peak detection. Control and treated cells were washed twice with cold PBS and centrifuged at 360×g for 10 min at 4° C., and fixed with chilled ethanol (70%; v/v) by low-speeded vortexing. For detection of DNA content analysis, propidium iodide staining was used. The cells were analyzed using a FACSCalibur flow cytometer (BD Biosciences, San Jose, Calif.).
Flow-cytometric detection of apoptosis. Several studies have declared that the induction of apoptosis may be cell cycle-dependent. Therefore, in our next series of experiments, we tested if brassinosteroids 9 or 6 cause apoptosis of the breast and prostate cancer cells via cell cycle blockage. From this reason we carried out DNA cell cycle analysis by flow cytometry based on detection of endonucleolytic DNA degradation that results in extraction of low molecular weight DNA from the cells. […] The subG1 peak containing apoptotic bodies was however not observed in MCF-7 cells.

MDA-MB-468 cells = experiment: BrdU incorporation assay, MDA-MB-468
Protocol: (§1) To analyze if the inhibition in cell viability was due to decreased cell proliferation, we measured DNA synthesis in the presence of BRs. The effect of brassinosteroids 9 or 6 on cell proliferation and DNA replication of the cancer cells was measured by BrdU incorporation assay. This immunostaining was based on nuclear incorporation of bromodeoxyuridine (BrdU) into DNA in place of thymidine during the S-phase of cell cycle detected by anti-specific-BrdU antibody following membrane permeabilization as described previously (Gratzner, Science. 1982, 218, 474-475). […] The BrdU reagent (0.1 mM; Sigma, MO, USA) was added in culture medium with cells for 4 h in a CO2 incubator at 37° C. After incubation the cells were washed three times with PBS and fixed with cold acetone-methanol (1:1, v/v) for 10 min. The cells were denaturated by HCl (1:5; Lachema, Czech Republic) and incubated with anti-specific-BrdU antibody (diluted 1:100 in PBS; clone Bu20a, DakoCytomation, Denmark) for 60 min in the dark. The cells were then washed three times in PBS (10 mM, pH 7.4) and incubated with goat anti-mouse fluorescein isothiocyanate (FITC)-labeled secondary antibody (Sigma, MO, USA) for 60 min in the dark. The cells were then washed three times in PBS and incubated with DAPI (50 μg/mL; Sigma, MO, USA) for 10 min in the dark. The coverslips with cells were washed in deionized water and mounted on glass slides, using the hydrophilic medium Mowiol (Calbiochem, Calif., USA) in glycerol-PBS (1:3, v/v) for fluorescence. Cells were visualized using microscopy and those incorporating BrdU (S phase cells) were counted in at least 25 fields and compared with the total number of all cells.

DU-145 cells [2] = experiment: BrdU incorporation assay, DU-145
Protocol: as §1

[3] = test system: DU-145 (androgen-insensitive) prostate cancer cell line; experiment: MTT cytotoxicity test, DU-145; details: 24 h, mean ± SD, read-out: IC50 determined by MTT cytotoxicity test
Protocol: (§2) 3-(4,5-Dimethylthiazol-2-yl)-2,5-diphenyltetrazolium bromide (MTT) was from Serva Electrophoresis (Heidelberg, Germany). Monoclonal mouse anti-bromodeoxyuridine (BrdU) intibody was obtained from DakoCytomation (Glostrup, Denmark). Calcein AM was obtained from PAA Laboratories GmbH (Pasching, Austria). […] All other cells were cultured in DMEM medium (Sigma, MO, USA). All used media were supplemented with 10% heat-inactivated fetal bovine serum, 2 mmol/L L-glutamine, 1% penicillin/streptomycin. The cell lines were maintained under standard cell culture conditions at 37° C. and 5% CO2 in a humid environment. Cells were subcultured twice or three times a week using the standard trypsinization procedure (Sigma, USA).
(§3) Cell viability in this case was assessed by 3-(4,5-dimethylthiozol-2-yl)-2,5-diphenyltetrazolium bromide (MTT) to determine IC50 concentrations of studied agents as described previously. […] The cells (70% to 80% confluent) were treated with brassinosteroids for 6, 12 and 24 h in cell culture medium. Cells that were used as controls were incubated with the maximum used amount of steroid diluent DMSO only. […] The absorbance was read using an ELISA reader Labsystem Multiscan RC at 570 nm. The viability of treated cells was related to the viability of control cells that represented 100% viability. […]

[4] = test system: MDA-MB-468 (estrogen receptor-α-negative) breast cancer cell line; experiment: MTT cytotoxicity test, MDA-MB-468; details: 24 h, mean ± SD, read-out: IC50 determined by MTT cytotoxicity test
Protocol: as §2, §3

[5] = treated at IC50 for 6 h, control 64 ± 1.5
[6] = treated at IC50 for 12 h, control 58 ± 3.0
[7] = treated at IC50 for 24 h, control 64 ± 5.6
[8] = treated at IC50 for 6 h, control 51 ± 3.8
[9] = treated at IC50 for 12 h, control 54 ± 4.2
[10] = treated at IC50 for 24 h, control 56 ± 6.5

Compound | Cell cycle distribution S (DU-145 cells [1]) [%] | Apoptosis subG1 fraction (DU-145 cells [1]) [%] | Cell cycle distribution G2/M (DU-145 cells [1]) [%] | Cell cycle distribution G1 (DU-145 cells [1]) [%] | percentage of proliferating BrdU positive cells (MDA-MB-468 cells; [5]) [%] | percentage of proliferating BrdU positive cells (MDA-MB-468 cells; [6]) [%] | percentage of proliferating BrdU positive cells (MDA-MB-468 cells; [7]) [%] | percentage of proliferating BrdU positive cells (DU-145 cells [2]; [8]) [%] | percentage of proliferating BrdU positive cells (DU-145 cells [2]; [9]) [%] | percentage of proliferating BrdU positive cells (DU-145 cells [2]; [10]) [%] | IC50 [3] [µM] | IC50 [4] [µM]
CC(C)[C@@H](C)[C@@H](O)[C@H](O)[C@@H](C)[C@H]1CC[C@H]2[C@@H]3COC(=O)[C@H]4C[C@H](O)[C@H](O)C[C@]4(C)[C@H]3CC[C@]12C [Brassinosteroid 6, 24-Epibrassinolide] | 8 | 24 | 39 | 53 | 53 ± 4.4 | 55 ± 3.5 | 43 ± 3.6 | 32 ± 3.8 | 27 ± 5.3 | 16 ± 1.5 | 65 ± 0.9 | 68 ± 2.5
CC[C@@H](C(C)C)[C@@H](O)[C@H](O)[C@@H](C)[C@H]1CC[C@H]2[C@@H]3CC(=O)[C@H]4C[C@H](O)[C@H](O)C[C@]4(C)[C@H]3CC[C@]12C [Brassinosteroid 9, 28-Homocastasterone] | 8 | 28 | 46 | 46 | 55 ± 5.0 | 48 ± 4.6 | 28 ± 4.6 | 41 ± 4.5 | 36 ± 4.4 | 38 ± 4.0 | 45 ± 2.8 | 65 ± 2.8
